pIC50: −log10 of the molar value.
Target: HDM2 (residues 17 to 125) (Homo sapiens (Human), UniProt Q00987)
Assay: HDM2 FRET assay (inhibition of p53 peptide binding to HDM2)
Settings: read-out: FRET IC50; 0.5 nM HDM2, 3 nM FITC peptide, two hour incubation; values rounded to the nearest integer
Text: Methods: An HDM2 FRET assay was developed to assess the compounds' inhibitory activity towards binding of p53 protein. […] Ratio of em520/em495 was used to calculate % inhibition and to obtain IC50 with 4-parameter logistic equation.
Concentration of compound was plotted against em520/Cem495 ratio signal. To generate IC50 values, the dose-response curves were fitted to a standard sigmoidal curve and IC50 values were derived by nonlinear regression analysis.

Sequence of HDM2 (residues 17 to 125) (Q00987 17-125): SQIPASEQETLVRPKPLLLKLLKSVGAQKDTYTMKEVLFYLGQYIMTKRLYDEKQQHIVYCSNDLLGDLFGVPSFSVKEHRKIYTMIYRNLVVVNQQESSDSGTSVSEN

## C[C@H]1CC[C@H](Cn2c(N3CCC[C@H]3c3nccs3)nc3cc(-c4noc(=O)[nH]4)nc(-c4cncc(Cl)c4)c32)CC1 [Example 3.81, 3-{4-(5-chloropyridin-3-yl)-3-[(trans-4-methylcyclohexyl)methyl]-2-[(2S)-2-(1,3-thiazol-2-yl)pyrrolidin-1-yl]-3H-imidazo[4,5-c]pyridin-6-yl}-1,2,4-oxadiazol-5(4H)-one]
  pIC50: > 9.00

Reference: patent US8962611B2, “Substituted imidazopyridines as HDM2 inhibitors” (Merck Sharp & Dohme Corp., priority 2012, dated 2015)
